From US6716628B2, “Chondrogenesis promoters and indolin-2-one derivatives” (Chugai Seiyaku Kabushiki Kaisha, priority 1999, dated 2004)

Key:
[1] = tested on: common mouse chondrocyte and adipocyte precursor cell line (CL-1); experiment: Uptake of 35S-labeled sulfuric acid into CL-1; format: cell-based; conditions: 10 μmol/L (A and F also 1 or 5 μmol/L), 48 h culture, uptake in final 24 h
Description: The above-mentioned cell line CL-1 was cultured in a 96-well cell culturing plate (Wallac Corp.) for a liquid scintillation counter (Wallac Corp.) to a cell density of 1000 per well. The medium used was α-MEM (GIBCO Corp.) containing 100 U/mL of penicillin (Meiji Seika Co., Ltd.), 100 μg/mL of streptomycin (Banyu Pharmaceutical Corp.) and 10% fetal bovine serum (INTERGEN Corp.). When the CL-1 cells reached confluency, the medium was exchanged with one containing 10 μmol/L of compounds A, B, C, D, E, F and G, and after 24 hours, ^35S-labeled sulfuric acid was added at 0.5 μCi per well and culturing was continued. For compounds A and F, a medium was also prepared with a concentration of 1 or 5 μmol/L. After 24 hours, the medium was discarded and the cell layer was fixed for 2 hours at room temperature using 0.2 mL of 5% paraformaldehyde (0.1 mol/L phosphate buffer solution (pH 7.4, Wako Pure Chemical Industries) containing 0.4% cetylpyridinium chloride (Wako Pure Chemical Industries). After discarding the fixing solution, it was washed once with the same solution and the washed solution was discarded. After adding 0.1 mL of scintillator (Wallac Corp.) to the cell layer and stirring, the radioactivity was measured with a scintillation counter (Wallac Corp.).

[2] = tested on: common mouse chondrocyte and adipocyte precursor cell line (CL-1); experiment: Uptake of 35S-labeled sulfuric acid into CL-1; format: cell-based; conditions: 10 μmol/L (A and F also 1 or 5 μmol/L), 48 h culture
[3] = tested on: articular cartilage; conditions: cited from earlier work
[4] = tested on: experimental animal models with induced arthritis; conditions: administered intraarticularly; Lab. Invest. 78(2):133-142, 1998; cited from earlier work

Molecule	differentiation of CL-1 to chondrocytes (from 35S-labeled sulfuric acid uptake) [1]	differentiation of CL-1 to adipocytes [2]	synovitis ([3]; in vivo)	arthritis-induced loss of proteoglycans in articular cartilage [4]	chondrogenesis ([3]; intraarticularly administered, Lab. Invest. 71(2):279-290, 1994)
3R)-1-(2,2-diisopropoxyethyl)-3-((4-methylphenyl) aminocarbonylmethyl)-3-(N′-(4-methylphenyl)ureido)indolin-2-one [Compound E]	clearly promote	clearly suppress	–	–	–
CCOC(CN1C(=O)[C@](CC(=O)Nc2ccc(CC)cc2)(NC(=O)Nc2ccc(C)cc2)c2ccccc21)OCC [Compound B, (3R)-1-(2,2-diethoxyethyl)-3-(4-ethylphenyl)aminocarbonylmethyl-3-(N′-(4-methylphenyl)ureido)indolin-2-one]	clearly promote	clearly suppress	–	–	–
CCOC(CN1C(=O)[C@](CC(=O)Nc2ccc(N(C)C)cc2)(NC(=O)Nc2ccc(C)cc2)c2ccccc21)OCC [Compound C]	clearly promote	clearly suppress	–	–	–
COC(CN1C(=O)C(CC(=O)Nc2ccc(C)cc2)(NC(=O)Nc2ccc(C)cc2)c2ccccc21)OC (stereo not drawn) [Compound D]	clearly promote	clearly suppress	–	–	–
Cc1ccc(NC(=O)C[C@]2(NC(=O)Nc3ccc(C)cc3)C(=O)N(CC(OCCF)OCCF)c3ccccc32)cc1 [Compound F]	clearly promote	clearly suppress	–	–	–
Cc1ccc(NC(=O)C[C@]2(NC(=O)Nc3ccc(C)cc3)C(=O)N(CC(OCCCl)OCCCl)c3ccccc32)cc1 [Compound G, 3R)-1-(2,2-bis(2-chloroethoxy)ethyl)-3-((4-methylphenyl) 3-(N′-(4-methylphenyl)ureido)indolin-2-one]	clearly promote	clearly suppress	–	–	–
TGF-β	–	–	provoke synovitis	–	–
TGF-β1: one isoform of TGF-β (Transforming growth factor β)	–	–	–	suppresses	promote chondrogenesis
